From patent publication US20220030868A1, “FUNGICIDAL HALOMETHYL KETONES AND HYDRATES” (FMC CORPORATION, priority 2018, published 2022)

Columns and labels:
[1] = system: Phakopsora pachyrhizi; assay: Test A: test suspension sprayed on soybean seedlings one day before inoculation with Phakopsora pachyrhizi spores (Asian soybean rust), visual disease rating; format: in vivo; conditions: 100 = 100% disease control, 0 = no control; for Test A rating (disease control): 10 ppm test suspension
Procedure, shortened: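 Soybean seedlings were sprayed to run-off with test suspension (acetone 3% of volume, acetone/water 50/50, 250 ppm PEG400) and inoculated with rust spores one day later. Incubation: 24 h saturated atmosphere at 22° C, then 8 days growth chamber at 22° C; scores 0–100 relative to untreated controls.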

[2] = system: Puccinia recondita f. sp. tritici; assay: Test B: test suspension sprayed on wheat seedlings one day before inoculation with Puccinia recondita f. sp. tritici spores (wheat leaf rust), disease rating; format: in vivo; conditions: 100 = 100% disease control, 0 = no control; for Test B rating (disease control): 10 ppm test suspension
Procedure, shortened: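 Wheat seedlings were sprayed to run-off with compound suspended in 50/50 acetone/water containing 250 ppm PEG400, then inoculated with P. recondita f. sp. tritici spores the next day. Plants were held 24 h in saturated air at 20 °C, then 6 days in a growth chamber at 20 °C. Disease control was rated 0–100% relative to controls, with some entries run at 50 or 10 ppm.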

Row | Compound | Test A rating (disease control) [1] [%] | Test B rating (disease control) [2] [%] | pest or weed control at 50 ppm ([1]; Phakopsora pachyrhizi, 50 ppm test suspension) [%] | pest or weed control at 50 ppm ([2]; 50 ppm test suspension) [%]
1 | CCOC(=O)c1cnn(Cc2ccc(OC(F)(F)C(O)(O)C(F)(F)F)cc2)c1 [Compound 227] | 99 | 55 |  | 
2 | CCO/C(=C\Oc1ccc(CN2CCC(C)(C)C2=O)cc1)C(F)(F)F [compound 225] | 0 | 0 |  | 
3 | CCO/C(=C\Oc1ccc(Cn2ccc(C(=O)OC)n2)cc1)C(F)(F)F [compound 251] | 100 | 9 |  | 
4 | CCO/C(=C\Oc1ccc(CNC(=O)CC(F)(F)F)cc1)C(F)(F)F [compound 113] | 0 | 0 |  | 
5 | C=CCOC(=O)c1cnn(Cc2cccc(O/C=C(\OCC)C(F)(F)F)c2)c1 [compound 333] | 100 | 0 |  | 
6 | CC(=O)COC(=O)c1cnn(Cc2ccc(OCC3(C(F)(F)F)OCCO3)cc2)c1 [compound 169] | 100 | 0 |  | 
7 | CCO/C(=C\Oc1ccc(Cn2cnc(C(=O)OC)c2)cc1)C(F)(F)F [compound 86] | 99 | 0 |  | 
8 | CCO/C(=C\Oc1ccc(Cn2ncc3cccnc32)cc1)C(F)(F)F [compound 87] | 0 | 0 |  | 
9 | O=C(OCC(F)(F)C(F)(F)F)c1cnn(Cc2ccc(OCC(O)(O)C(F)(F)F)cc2)c1 [Compound 46] | 64 | 85 |  | 
10 | CCOC(=O)c1cnn(C(C)c2ccc(OCC(O)(O)C(F)(F)F)cc2)c1 (stereo not drawn) [Compound 35] | 99 | 32 |  | 
11 | C=C(C)COC(=O)c1ccn(Cc2ccc(O/C=C(\OCC)C(F)(F)F)cc2)n1 [compound 358] | 100 | 0 |  | 
12 | CCO/C(=C\Oc1ccc(Cn2cc(C(=O)NCC(F)(F)F)cn2)cc1)C(F)(F)F [compound 106] | 0 | 0 |  | 
13 | CCS(=O)(=O)Cc1ccc(OCC2(C(F)(F)F)OCCO2)cc1 [compound 23] | 0 | 19 |  | 
14 | CC#CCOC(=O)c1cnn(Cc2cccc(O/C=C(\OCC)C(F)(F)F)c2)c1 [compound 300] | 100 | 0 |  | 
15 | CCO/C(=C\Oc1ccc(Cn2cc(C(=O)O)cn2)cc1)C(F)(F)F [compound 116] | 100 | 0 |  | 
16 | CCO/C(=C\Oc1ccc(Cn2ccc(C(=O)OCC(C)C)n2)cc1)C(F)(F)F [compound 357] | 100 | 9 |  | 
17 | CCO/C(=C\Oc1cccc(Cn2cc(C(=O)OC(C)C)cn2)c1)C(F)(F)F [compound 332] | 100 | 0 |  | 
18 | CCCCCCOC(=O)c1cnn(Cc2ccc(OCC3(C(F)(F)F)OCCO3)cc2)c1 [compound 16] | 99 | 0 |  | 
19 | CN(C)C(=O)C1=NOC(c2ccc(OCC(O)(O)C(F)(F)F)cc2)C1 (stereo not drawn) [Compound 41] | 92 | 23 |  | 
20 | CCO/C(=C\Oc1ccc(CN2CCCC2=O)cc1)C(F)(F)F [compound 224] | 0 | 0 |  | 
21 | CCO/C(=C\Oc1ccc(Cn2cnc(C#N)n2)cc1)C(F)(F)F [Compound 82] | 97 | 0 |  | 
22 | CCOC(=O)c1cnn(Cc2ccc(OCC3(C(F)(F)F)OCCO3)s2)c1 [compound 273] |  |  | 100 | 0
23 | O=C(NCC1CC1)c1csc(Cc2ccc(OCC(O)(O)C(F)(F)F)cc2)n1 [Compound 69] | 98 | 96 |  | 
24 | CCO/C(=C\Oc1ccc(Cn2ccc(C(=O)O)n2)cc1)C(F)(F)F [compound 299] | 100 | 0 |  | 
